Measured values published in patent US6869929B2, “Use of transcription factors for treating inflammation and other diseases” (Beth Israel Deaconess Medical Center, priority 2000, dated 2005).

Tests used:
Assay type in all cases: cell-based, human
COL2A1 = COL2A1 mRNA time course in C-28/I2 chondrocytes; details: earlier time points
ESE-1 [1] = test: ESE-1 mRNA Northern blot in LB-12 osteoblasts; details: LB-12 cells
Description: U-87 Mg and U-138 Mg (human glioma), THP-1 (human monocytic), RAW 264.7 (murine monocytic), LB-12 (human osteoblast-like large T antigen transformed bone marrow stromal cells), and human chondrocytes were grown and treated with cytokines as described (Apperley, J., et al. 1990. J Bone Mineral Res. 5:S93; Goldring, M. B., et al. 1994. J Clin Invest 94:2307-16; Goldring, S. R., et al. 1983. J Bone Joint Surg 65:575-84; Libermann, T. A., et al. 1987. Embo J. 6:1627-1632).
Total RNA was harvested using QIAshreder (Qiagen) and RNeasy® Mini Kit (Quiagen) or Trizol (Gibco BRL). Poly A^+ RNA was prepared with MicroPoly(A) Pure (Ambion). Northern blots (5 μg total RNA) were hybridized using a full length ESE-1 cDNA probe as described (Oettgen, P., et al. et al. 1997, Mol Cell Biol 17:4419-33.).
Osteoblasts, the bone cells responsible for bone formation, represent another connective tissue cell target of inflammatory cytokines in joint disorders (Bogoch, E. R., and E. Moran. 1998, Can J Surg 41:264-71). […] LB-12 cells were incubated for different times in the absence or presence of IL-1β. […] Since the rapid, but transient induction of ESE-1 resembles that of immediate early genes, we tested the effect of the protein synthesis inhibitor cycloheximide which superinduces expression of certain genes due to mRNA stabilization. Cycloheximide alone had no effect, but superinduced IL-1β-mediated ESE-1 mRNA expression (FIG. 11d).

ESE-1 [2] = test: ESE-1 mRNA time course in C-28/I2 chondrocytes; details: 10 μg/ml, absence or presence of IL-1β, up through 8 h
Description: The immortalized human chondrocyte cell lines T/C-28a2 and C-28/I2 (Goldring M B, et al., J Clin Invest 1994;94:2307-16) were cultured in Dulbecco's modified Eagle's medium (DMEM)/Ham's F12 (1/1, v/v; Life Technologies) containing 10% fetal calf serum (FCS; Biowhitaker) and passaged using trypsin-EDTA solution (Life Technologies) at >95% confluency every 5 to 6 days. The temperature-sensitive tsT/AC62 cells (Robbins J R, et al., Arthritis Rheum 2000;43:2189-201) were grown in DMEM/Ham's F12 (1/1, v/v) supplemented with 10% FCS, 10 IU/ml penicillin, 100 μg/ml streptomycin and maintained at 32° C. in 5% CO2 and the culture medium was changed every 3 to 4 days. The cells were grown to confluence and passaged by treatment with trypsin/EDTA as described previously (Robbins J R, et al., Arthritis Rheum 2000;43:2189-201). Suspensions of tsT/AC62 were embedded in alginate and cultured for X days. […]
We first examined the time course of ESE-1 expression at the mRNA level in the C-28/I2 human chondrocyte cell line after treatment with IL-1β for periods of time between 0.5 and 24 h (FIG. 17). In IL-1β-treated quiescent cultures, ESE-1 mRNA was detected at 30 min, increased to peak levels within 4 h, and declined gradually thereafter. […]

Question: `C[C@@H]1C[C@@H]([C@H](O)CC2CC(=O)NC(=O)C2)C(=O)[C@@H](C)C1` [Cycloheximide, cycloheximide] was tested. Which “IL-1β inhibition of COL2A1 mRNA in presence of agent” value (COL2A1) did it give?
Answer: appeared to abolish this inhibition

Question: And the “IL-1β-mediated ESE-1 mRNA expression in presence of agent” value (ESE-1 [1])?
Answer: superinduced

Question: What about the “ESE-1 mRNA expression, agent alone” value (ESE-1 [1]; 1, 2, 6, 24 hours) of the same compound?
Answer: had no effect

Question: What about the “ESE-1 mRNA levels in presence of agent” value (ESE-1 [2]) of the same compound?
Answer: stabilized the levels of ESE-1 mRNA and augmented control and IL-1β-stimulated expression
